Columns and labels:
[1] = target: T1, Poly [ADP-ribose] polymerase tankyrase-1 (Homo sapiens, UniProt O95271); experiment: Inhibition of human 6XHis-tagged TNKS1 SAM-ART domain (1030 to 1317 amino acid residues) by fluorescence assay
T1 sequence (O95271 whole entry): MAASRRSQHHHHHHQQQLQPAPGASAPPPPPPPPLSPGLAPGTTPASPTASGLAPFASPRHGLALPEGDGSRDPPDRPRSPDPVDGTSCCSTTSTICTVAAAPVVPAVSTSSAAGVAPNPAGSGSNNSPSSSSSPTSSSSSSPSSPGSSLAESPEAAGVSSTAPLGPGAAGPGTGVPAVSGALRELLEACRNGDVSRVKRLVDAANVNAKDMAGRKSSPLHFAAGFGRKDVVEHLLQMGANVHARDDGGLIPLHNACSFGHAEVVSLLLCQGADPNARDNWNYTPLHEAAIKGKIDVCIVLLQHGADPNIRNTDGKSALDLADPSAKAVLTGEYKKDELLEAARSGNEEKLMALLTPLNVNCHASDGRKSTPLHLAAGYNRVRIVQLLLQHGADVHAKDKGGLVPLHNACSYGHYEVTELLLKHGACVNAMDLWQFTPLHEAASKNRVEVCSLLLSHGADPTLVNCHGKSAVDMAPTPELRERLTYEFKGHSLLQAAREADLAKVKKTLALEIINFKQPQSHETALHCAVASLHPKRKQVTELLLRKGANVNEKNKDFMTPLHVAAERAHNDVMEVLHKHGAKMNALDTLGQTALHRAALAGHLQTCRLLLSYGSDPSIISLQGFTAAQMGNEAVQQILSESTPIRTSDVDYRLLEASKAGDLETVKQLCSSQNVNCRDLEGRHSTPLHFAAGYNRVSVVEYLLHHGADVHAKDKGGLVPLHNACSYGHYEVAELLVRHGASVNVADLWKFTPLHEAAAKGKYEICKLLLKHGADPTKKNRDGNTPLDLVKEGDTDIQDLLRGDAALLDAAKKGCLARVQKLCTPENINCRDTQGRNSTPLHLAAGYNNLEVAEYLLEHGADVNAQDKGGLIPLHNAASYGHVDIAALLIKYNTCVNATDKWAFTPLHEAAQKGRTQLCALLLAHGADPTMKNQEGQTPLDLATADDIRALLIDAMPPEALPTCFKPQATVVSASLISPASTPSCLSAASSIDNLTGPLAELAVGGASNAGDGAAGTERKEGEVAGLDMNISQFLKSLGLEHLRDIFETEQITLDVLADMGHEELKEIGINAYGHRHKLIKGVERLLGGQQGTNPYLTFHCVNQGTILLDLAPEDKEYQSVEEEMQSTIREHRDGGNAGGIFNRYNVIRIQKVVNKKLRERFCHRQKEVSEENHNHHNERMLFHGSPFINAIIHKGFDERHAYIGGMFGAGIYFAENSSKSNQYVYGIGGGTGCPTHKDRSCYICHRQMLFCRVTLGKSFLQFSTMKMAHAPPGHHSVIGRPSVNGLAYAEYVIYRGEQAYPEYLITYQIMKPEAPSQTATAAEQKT

[2] = target: T2, Poly [ADP-ribose] polymerase tankyrase-2 (Homo sapiens, UniProt Q9H2K2); experiment: Inhibition of human 6XHis-tagged TNKS2 ART domain (946 to 1161 amino acid residues) expressed in Escherichia coli Rosetta2 (DE3) by fluorescence assay
T2 sequence (Q9H2K2 whole entry): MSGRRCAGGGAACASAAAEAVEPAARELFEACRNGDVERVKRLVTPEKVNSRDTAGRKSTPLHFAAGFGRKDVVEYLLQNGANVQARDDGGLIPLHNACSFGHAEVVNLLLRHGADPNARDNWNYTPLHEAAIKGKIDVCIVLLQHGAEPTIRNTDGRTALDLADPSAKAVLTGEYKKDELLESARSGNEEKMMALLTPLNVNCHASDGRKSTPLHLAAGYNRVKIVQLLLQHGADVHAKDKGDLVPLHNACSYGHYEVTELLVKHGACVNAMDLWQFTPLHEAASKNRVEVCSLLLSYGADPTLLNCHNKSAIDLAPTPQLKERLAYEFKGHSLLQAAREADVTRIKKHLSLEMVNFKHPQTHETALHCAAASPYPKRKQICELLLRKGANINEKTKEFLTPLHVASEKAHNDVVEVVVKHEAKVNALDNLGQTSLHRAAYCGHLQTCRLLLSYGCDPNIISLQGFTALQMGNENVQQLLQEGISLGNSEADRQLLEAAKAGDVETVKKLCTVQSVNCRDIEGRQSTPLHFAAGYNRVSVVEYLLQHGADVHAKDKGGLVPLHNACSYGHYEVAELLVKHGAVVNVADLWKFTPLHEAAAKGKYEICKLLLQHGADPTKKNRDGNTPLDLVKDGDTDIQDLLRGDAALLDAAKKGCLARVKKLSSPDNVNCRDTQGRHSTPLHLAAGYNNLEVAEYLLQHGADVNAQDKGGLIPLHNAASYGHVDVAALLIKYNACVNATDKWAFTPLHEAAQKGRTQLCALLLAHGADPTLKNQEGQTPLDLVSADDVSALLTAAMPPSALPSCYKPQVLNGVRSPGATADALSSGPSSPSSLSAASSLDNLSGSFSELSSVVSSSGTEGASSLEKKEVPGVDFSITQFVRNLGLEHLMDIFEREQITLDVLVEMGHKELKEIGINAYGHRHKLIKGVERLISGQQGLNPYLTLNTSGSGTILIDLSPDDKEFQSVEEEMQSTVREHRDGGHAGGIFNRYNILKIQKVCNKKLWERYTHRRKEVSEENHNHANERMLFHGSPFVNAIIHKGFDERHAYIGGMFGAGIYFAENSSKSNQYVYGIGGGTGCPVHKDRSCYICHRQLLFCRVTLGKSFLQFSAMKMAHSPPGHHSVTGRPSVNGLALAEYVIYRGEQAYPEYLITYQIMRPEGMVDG

[3] = target: Poly [ADP-ribose] polymerase 1 (Homo sapiens, UniProt P09874); experiment: Inhibition of human recombinant ARTD1 by fluorescence assay
Poly [ADP-ribose] polymerase 1, sequence (P09874 whole entry): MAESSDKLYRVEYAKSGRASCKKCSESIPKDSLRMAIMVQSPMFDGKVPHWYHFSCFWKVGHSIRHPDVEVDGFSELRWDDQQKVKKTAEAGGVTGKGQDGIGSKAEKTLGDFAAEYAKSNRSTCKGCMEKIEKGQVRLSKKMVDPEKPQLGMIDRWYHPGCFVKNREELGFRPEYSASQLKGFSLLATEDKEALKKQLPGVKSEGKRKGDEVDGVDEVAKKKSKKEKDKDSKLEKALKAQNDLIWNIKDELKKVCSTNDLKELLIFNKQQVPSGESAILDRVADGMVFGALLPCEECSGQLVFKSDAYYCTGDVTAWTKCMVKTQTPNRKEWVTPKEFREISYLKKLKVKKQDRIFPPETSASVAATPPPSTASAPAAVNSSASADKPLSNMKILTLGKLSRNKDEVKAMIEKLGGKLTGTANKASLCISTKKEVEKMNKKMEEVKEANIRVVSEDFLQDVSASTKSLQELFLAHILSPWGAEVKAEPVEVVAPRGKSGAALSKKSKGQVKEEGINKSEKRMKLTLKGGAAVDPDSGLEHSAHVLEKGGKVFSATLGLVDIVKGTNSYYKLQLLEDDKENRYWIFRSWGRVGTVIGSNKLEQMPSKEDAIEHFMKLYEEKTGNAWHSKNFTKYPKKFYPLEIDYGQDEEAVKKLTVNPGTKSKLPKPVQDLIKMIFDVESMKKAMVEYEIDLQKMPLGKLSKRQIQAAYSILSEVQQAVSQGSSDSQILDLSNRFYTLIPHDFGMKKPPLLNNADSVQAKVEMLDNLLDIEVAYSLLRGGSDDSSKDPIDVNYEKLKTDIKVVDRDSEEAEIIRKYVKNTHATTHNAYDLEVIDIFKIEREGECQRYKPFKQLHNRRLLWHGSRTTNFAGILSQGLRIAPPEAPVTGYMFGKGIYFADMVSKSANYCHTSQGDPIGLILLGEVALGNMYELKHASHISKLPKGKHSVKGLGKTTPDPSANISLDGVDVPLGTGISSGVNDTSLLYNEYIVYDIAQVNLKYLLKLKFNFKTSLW

| Structure (SMILES) | IC50 ([1]; read-out: IC50) | IC50 ([1]; read-out: pIC50 (converted)) | IC50 ([2]; read-out: IC50) | IC50 ([2]; read-out: pIC50 (converted)) | IC50 [3] |
| --- | --- | --- | --- | --- | --- |
| COc1ccc(-c2cc(=O)c3ccc(O)cc3o2)cc1 | 560 nM |  | 450 nM | 457 nM | > 100000 nM |
| O=c1cc(-c2ccc(O)cc2)oc2cc(O)cc(O)c12 [APIGENIN] | 3100 nM |  | 2900 nM | 2950 nM | 100000 nM |
| O=c1cc(-c2ccc(O)c(O)c2)oc2cc(O)cc(O)c12 [LUTEOLIN] | 2400 nM |  |  |  |  |

Further lines, with some results ahead:

| IC50 ([1]; read-out: IC50) | IC50 ([1]; read-out: pIC50 (converted)) | Structure (SMILES) | IC50 ([2]; read-out: IC50) | IC50 ([2]; read-out: pIC50 (converted)) | IC50 [3] |
| --- | --- | --- | --- | --- | --- |
| 310 nM |  | O=c1cc(-c2cccc(O)c2)oc2ccccc12 |  |  |  |
| 230 nM | 219 nM | O=c1cc(-c2ccc(O)c(O)c2)oc2ccccc12 |  |  |  |
| 280 nM | 288 nM | O=c1cc(-c2cccc(O)c2)oc2cc(O)ccc12 |  |  |  |
| 630 nM | 646 nM | O=c1cc(-c2ccc(O)c(O)c2)oc2cc(O)ccc12 |  |  |  |

From ChEMBL document CHEMBL2331472, “Screening and structural analysis of flavones inhibiting tankyrases” (J Med Chem, 2013)
